Data published in patent publication US20070270403A1 (priority 2003, published 2007).
Like-named read-outs stand apart in the source and are kept apart here.

Columns and labels:
5-HT release in NAcc = assay: In vivo microvoltammetry, 5-HT release in NAcc (risperidone studies); set-up: species or system Sprague-Dawley Rattus Norvegicus; conditions: Subacute, cocaine 10 mg/kg i.p. on Day 1
Procedure: In vivo microvoltammetry was used to detect dopamine (DA) and serotonin (5-HT) release from Nucleus Accumbens (NAcc) of freely moving, male, Sprague Dawley laboratory rats, while animals' locomotor (forward ambulations) and stereotypic behavior (fine movements of sniffing and grooming) were monitored at the same time with infrared photobeams. Monoamine release mechanisms were determined by using a depolarization blocker, gamma-butyrolactone (γBL). Miniature carbon sensors, BRODERICK PROBE® Lauric Acid Microelectrodes, smaller than a human hair, were used in conjunction with a semidifferential electrochemical circuit, to detect release of each monoamine in separate signals and within seconds. […] The hypothesis for the present studies is derived from a growing body of evidence that cocaine-induced psychosis and schizophrenic psychosis share similar neurochemical and behavioral manifestations.
Animals were purchased from Charles River Laboratories, Kingston, N.Y. and were housed in our animal care facilities for two weeks before surgery was performed. The Animal Care Facility operates under the auspices of the CUNY, City College Institutional Animal Care and Use Committee (IACUC) in compliance with National Institute of Health (NIH) guidelines. The weight range for the animals, at the time of the studies, was 350-475 g. Animals were group housed before surgery, individually housed after surgery and fed Purina Rat Chow and water ad libitum. A twelve hr dark-light cycle was maintained both in the housing of the animals and throughout the experimental studies. […] A Ag/AgCl reference electrode was placed in contact with dura, 7 mm anteriorally and contralaterally to the indicator microelectrode. A stainless steel auxiliary microelectrode, was placed in contact with dura.
In vivo microvoltammetric studies on conscious Sprague-Dawley laboratory rats were begun nine to fifteen days after the aseptic surgical operations were performed. On each experimental day, animals were placed in a Plexiglas-copper faradaic chamber. The three-microelectrode assembly, enclosed within the animal's prosthetic acrylic cap, was connected to a CV37 detector by means of a mercury commutator (Br. Res. Instr., Princeton, N.J.), a flexible cable, and a mating connector (BJM Electronics, Staten Island, N.Y.). The CV37 detector was electrically connected to a Minigard surge suppresser (Jefferson Electric, Magnetek, N.Y.) which was then connected to an electrical ground in isolation. […] Each animal was used as its own control. In vivo microvoltammetric scans were recorded in sec and repeated every five min for a period of 2 hrs before each treatment and a period of two hrs after each treatment.
(§1) The first hr pre-drug, allowed exploratory behavior. Exploratory behavior is defined as open-field behavior of ambulations (forward locomotion) and stereotypy (fine movements of sniffing and grooming), wherein animals respond to the stimuli of a novel environment with a high frequency of behavioral counts. The second hr pre-drug allowed the animal to become habituated before treatment. […] In the acute studies, each drug was administered […]. For the subacute studies, twenty four hrs later, the animals were again placed in the faradaic behavioral chamber and no further drug was administered. Each animal was monitored for possible recovery, withdrawal or after-effects. of each treatment WHILE open-field behaviors of locomotions and stereotypy were monitored with computerized infrared photocell beams which surround the faradaic chamber.

[1] = system: Sprague-Dawley laboratory rats; assay: Locomotion (ambulations) by infrared photobeams (risperidone studies); type: in vivo, Sprague-Dawley Rattus Norvegicus; conditions: Subacute
Procedure: (§2) Behaviors were monitored with infrared photobeams which surrounded the faradaic chamber. Open-field behaviors of locomotion (ambulations) and stereotypy (fine movements of sniffing and grooming) were recorded in sec and repeated every five min for a period of 2 hrs before each treatment and a period of 2 hrs after each treatment. Open-field behaviors were monitored simultaneously with in vivo microvoltammetric recordings of monoamines.
as §1
(§3) The faradaic chamber was made of plexiglas and covered with copper wire to refract possible electrical artifacts (dimensions: 24 inch (width) by 18 inch (depth) by 23.5 inch (height)). A 16 by 16 array of infrared photobeams, held in place by an aluminum frame, was situated ¾ inch above the Plexiglas floor of the chamber to detect locomotor and stereotypic movements. Photobeams were sampled by a Pentium computer to define the x-y position of the animal within a 1.5 inch resolution every 100 msec. When an x-y position was calculated, it was used to define a particular behavioral parameter. This system is a modified version of an Activity Pattern Monitor (APM) (San Diego Instruments, San Diego, Calif.). Behavioral data is presented in terms of Frequency of Events.
(§4) Neurochemical and behavioral data, derived from the last thirty minutes of the habituation period, provided the baseline data. […] Where appropriate, data points in the time course were subjected to 95% Confidence Limits (C.L.).

[2] = system: Sprague-Dawley laboratory rats; assay: Stereotypy (fine movements of sniffing and grooming) by infrared photobeams (risperidone studies); type: in vivo, Sprague-Dawley Rattus Norvegicus
Procedure: as §2, §1, §3, §4

[3] = cited from earlier work

COC(=O)[C@H]1[C@@H](OC(=O)c2ccccc2)C[C@@H]2CC[C@H]1N2C [Cocaine, cocaine]
Decrease in 5-HT release on Day 2 compared to drug effect on Day1 (5-HT release in NAcc): about 75%
Decrease in locomotor activity frequency on Day 2 compared with drug treatment, Day1 [1]: about 200 counts
Stereotypy frequency, Day 2 (Subacute) ([2]; 24 hr after cocaine 10 mg/kg i.p. or risperidone 2 mg/kg s.c. + cocaine): 40 counts
Decrease in stereotypy frequency on Day 2 compared with drug treatment, Day1 ([2]; Subacute, cocaine 10 mg/kg i.p.): about 20 counts
Stereotypy frequency with drug treatment, Day1 ([2]; cocaine 10 mg/kg i.p. or risperidone 2 mg/kg s.c. + cocaine): 60 counts
half-life ([3]; i.v. cocaine): 0.5 h
half-life ([3]; s.c. cocaine): 4 h
